Test results: patent US20220160723A1, “PHARMACOLOGICAL MITIGATION OF LATE-STAGE TOXEMIA” (priority 2019, published 2022)
“Also recorded” adds a separate entry of the source. Where two headings read alike, the source gives them in different places.

Experiments:
[1] = tested on: Human Brain Microvascular Endothelial cells (HBMEC); assay type: cell-based; conditions: for ET induced cortical actin rearrangement: HBMEC, 4 h; for ET-mediated actin remodeling / rearrangement: cultured endothelial cells (HBMEC), summary statement
[2] = tested on: ET-induced footpad swelling (edema); assay: Mouse footpad swelling (edema) assay after ET injection; assay type: in vivo, mice; conditions: for protection against ET-induced footpad swelling (edema): in vivo mouse model, pre-treated mice, summary statement; for footpad swelling (edema) following ET injection: mice, 0.15 μg ET/paw (FIG. 5)
[3] = tested on: HBMEC monolayer; assay: Transwell monolayer permeability (Evans blue dye diffusion); assay type: cell-based, human; conditions: for ET induced disruption of monolayer integrity: HBMEC in transwell inserts, ET 250 ng/ml, 24 h, inhibitor 50 μM (FIG. 2E, 3G)
[4] = tested on: Rac1; assay: Rac1-GTP pull-down with PAK-Beads and western blot; assay type: cell-based, human; conditions: HBMEC, ET 250 ng/ml
Experimental: FIGS. 2A-2E show ET induced actin rearrangement is dependent on Rac1 activation. […] Whole cell lysates were incubated with PAK-Beads, which specifically bind to GTP-bound Rac1. Bead bound Rac1-GTP and total Rac1 levels in cell lysate were determined by western blot with anti-Rac1 antibody. ET induced significant increase in Rac1-GTP (i.e. active Rac1) levels (see FIG. 2B). […] Cells were fixed and stained with cell mask green to visualize cytoplasm. Cell area was quantified from 8 wells for each treatment («-number of cells) using automated image analysis software. […] MRMEC were grown to confluence in transwell inserts, and treated with ET (250 ng/ml) for 24h, in the presence or absence of Rac1 inhibitor NSC23766 (50 μM). Changes in monolayer permeability were assessed by assaying the diffusion of Evans blue dye from apical to basal chamber of transwell inserts. […] Data represent mean changes in monolayer permeability from 2 independent experiments. p value indicates standard deviation.
FIGS. 3A-3H show ET-mediated Rac1 activation and actin rearrangement is dependent on an early induction of IGF-1R, PI3K and MEK signaling. […] Activation of IGF-1R in ET˜ireated and control cells was assessed by monitoring the levels of IGF-1R phosphorylated at Tyrosine 1135 and 1136 relative to total IGF-1R in whole cell lysates by western blot. ET induced a rapid (within 10 minutes), but transient activation of IGF-1R. […] Cells were fixed and stained with CellMask green to visualize cytoplasm. Cell area was quantified from 8 wells for each treatment (n-number of cells) using automated image analysis software. […] Whole cell lysates were incubated with PAK-Beads, which specifically bind to GTP-bound Rac1 . Bead bound Rac1-GTP and total Rac1 levels in cell lysate were determined by western blot with anti-Rac 1 antibody. […] Total and phosphorylated […] (Thr 308 and Ser 473), as well as those of ERK (Thr 202 and Tyr 204) was determined by western blot. ET induced a rapid (within 10-20 minutes) phosphorylation of AKT and ERK. […] Changes in monolayer to permeability were assessed by assaying the diffusion of Evans blue dye from apical to basal chamber of transwell. […] Data represent mean changes in monolayer permeability from 2 independent experiments. p value indicates standard deviation. […] Whole cell lysates were incubated with PAK-Beads, which specifically bind to GTP-hound RacL Bead bound Rac1-GTP and total Rac1 levels in cell lysate were determined by western blot with anti-Rac1 antibody.

[5] = tested on: Human Brain Microvascular Endothelial cells (HBMEC); assay: Medium throughput quantification of whole cell area (CellMask green); assay type: cell-based; conditions: ET 250 ng/ml, 4 h, 8 wells per treatment (FIG. 2D, 3C)
[6] = tested on: CFL1; assay: Western blot of total and phosphorylated CFL1 (Serine 3); assay type: cell-based, human; conditions: HBMEC
Experimental: FIGS. 4A-4I show ET induced IGF-1R, MEK and Rac1 signaling activate (dephosphorylate) the actin depolymerizing protein coflin (CFL1). […] ET induced a significant decrease in phosphorylated CFL1. (see FIG. 4B). FIG. 4B show levels of phosphorylated CFL1 relative to total CFL1 quantified from 2 independent experiments. p values indicate standard deviation. […] Total and phosphorylated CFL1 (Serine 3) levels were determined by western blot. […] (see FIG. 4D). FIG. 4D show levels of phosphorylated CFL1 relative to total CFL1 in whole cell lysates from HBMEC treated with ET in the presence or absence of IGF-1R inhibitor AG1024 and quantified from 2 independent experiments. […] Total and phosphorylated CFL1 (Serine 3) levels were determined by western blot. […] Total and phosphorylated CFL1 (Serine 3) levels were determined by western blot. […] (see FIG. 4G). FIG. 4G show levels of phosphorylated CFL1 relative to total CFL1 in whole cell lysates from HBMEC treated with ET in the presence or absence of the Rac1 inhibitor NSC23766 and quantified from 2 independent experiments. p values indicate standard deviation. […] Activation (dephosphorylation) of SSH1 in ET-treated and control cells was assessed by monitoring the levels of SSHI phosphorylated at Serine 978 relative to total SSHI in whole cell lysates by western blot. SSHI phosphorylation was reduced relative to untreated control cells at 240 min after ET treatment. […] Total and phosphorylated CFL1 (Serine 3) levels were determined by western blot.

[7] = ET 250 ng/ml, phalloidin (FIG. 3B, 3F)
[8] = cultured HBMEC model, summary statement
[9] = ET 250 ng/ml, 4 h (FIG. 4C, 4E, 4I)

**Q.** What does the source list for `CC(C)(C)c1cc(C=C(C#N)C#N)cc(Br)c1O` [AG1024, 2-[(3-bromo-5˜iert-butyl-4-hydroxyphenyl)methylidene]propanedinitile]?
**A.** ET induced cortical actin rearrangement [1, 7]: almost completely inhibited; ET-mediated actin remodeling / rearrangement [1]: strongly inhibit; also recorded: almost completely rescue; protection against ET-induced footpad swelling (edema) [2]: near complete protection; also recorded: almost complete protection; footpad swelling (edema) following ET injection ([2]; pre-treatment 10 mg/kg): consistently block; ET-mediated cell-cell barrier disruption [3, 8]: almost completely rescue; ET induced Rac1 activation (Rac1-GTP) ([4]; 4 h (FIG. 3D)): completely rescued; ET induced Rac1 activation (Rac1-GTP) ([4]; 4 h (FIG. 3H)): significantly inhibited; ET induced cell area reduction [5]: completely .rescued; ET induced CFL1 activation (dephosphorylation) [6, 9]: significantly inhibited

**Q.** For `CC(C)(C)c1cc(C(=O)/C(C#N)=N/Nc2cccc(Cl)c2)no1` [ES1-09], which “footpad swelling (edema) following ET injection” value ([2]; pre-treatment 10 mg/kg) is on record?
**A.** The value was “consistently block”.

**Q.** For `O=C(NC[C@H](O)CO)c1ccncc1Nc1ccc(I)cc1F` [AS703026], which “ET induced cortical actin rearrangement” value [1, 7] is on record?
**A.** The value was “significantly reduced”.

**Q.** And the “ET-mediated actin remodeling / rearrangement” value [1]?
**A.** The value was “strongly inhibit; also recorded: almost completely rescue”.

**Q.** What about the “protection against ET-induced footpad swelling (edema)” value [2] of the same compound?
**A.** Its value is “near complete protection; also recorded: almost complete protection”.

**Q.** What about the “footpad swelling (edema) following ET injection” value ([2]; pre-treatment 33 mg/kg) of the same compound?
**A.** Its value is “consistently block”.

**Q.** What about the “ET induced disruption of monolayer integrity” value [3] of the same compound?
**A.** Its value is “significantly reduced”.

**Q.** What about the “ET-mediated cell-cell barrier disruption” value [3, 8] of the same compound?
**A.** Its value is “almost completely rescue”.

**Q.** And the “ET induced Rac1 activation (Rac1-GTP)” value ([4]; 4 h (FIG. 3H))?
**A.** The value was “significantly inhibited”.

**Q.** What about the “ET induced CFL1 activation (dephosphorylation)” value [6, 9] of the same compound?
**A.** Its value is “significantly inhibited”.

**Q.** How did the “protection against ET-induced footpad swelling (edema)” value [2] turn out when `CS(=O)(=O)N1CCN(Cc2cc3nc(-c4cccc5[nH]ncc45)nc(N4CCOCC4)c3s2)CC1` [GDC-0941, pictilisib] was run?
**A.** The value was “near complete protection; also recorded: almost complete protection”.

**Q.** And the “footpad swelling (edema) following ET injection” value ([2]; pre-treatment 75 mg/kg)?
**A.** Its value is “consistently block”.

**Q.** And the “ET-mediated cell-cell barrier disruption” value [3]?
**A.** Its value is “almost completely rescue”.

**Q.** What does the source list for `CCN(CC)CCCC(C)Nc1nc(C)cc(Nc2ccc3nc(C)cc(N)c3c2)n1.Cl.Cl.Cl` (stereo not shown) [NSC23766, N(6)˜[2-[[4˜(diethylamino)-1-methylbutyl]amino]-6-methyl-4-pyrimidinyl]-2-methyl-4,6-quinolinediamine trihydrochloride]?
**A.** ET induced cortical actin rearrangement ([1]; ET 250 and 500 ng/ml, Alexa 488 phalloidin (FIG. 2C)): almost completely inhibited; ET-mediated actin remodeling / rearrangement ([1]; trihydrochloride): strongly inhibit; also recorded: almost completely rescue; protection against ET-induced footpad swelling (edema) ([2]; trihydrochloride): near complete protection; also recorded: almost complete protection; footpad swelling (edema) following ET injection ([2]; pre-treatment 10 mg/kg): consistently block; ET induced disruption of monolayer integrity [3]: significantly reduced; ET-mediated cell-cell barrier disruption [3, 8]: almost completely rescue; ET induced Rac1 activation (Rac1-GTP) ([4]; 4 h (FIG. 3D)): completely rescued; ET induced cell area reduction [5]: significantly reduced; ET induced CFL1 activation (dephosphorylation) [6, 9]: significantly inhibited; ET induced CFL1 activation (dephosphorylation) ([6]; ET 50, 100 and 250 ng/ml, 4 h (FIG. 4F)): significantly inhibited
